Calls of active or inactive are those of the source. The rule behind the calls is not given here.
System: CCRIS mutagenicity, Ames/micronucleus/aberration tests
Assay: CCRIS mutagenicity studies
[1] = Test System: AMES SALMONELLA TYPHIMURIUM, Strain/Indicator: TA100, Metabolic Activation: NONE, Method: PREINCUBATION
[2] = Test System: AMES SALMONELLA TYPHIMURIUM, Strain/Indicator: TA100, Metabolic Activation: NONE, Method: STANDARD PLATE
[3] = Test System: AMES SALMONELLA TYPHIMURIUM, Strain/Indicator: TA1535, Metabolic Activation: NONE, Method: PREINCUBATION
[4] = Test System: AMES SALMONELLA TYPHIMURIUM, Strain/Indicator: TA98, Metabolic Activation: NONE, Method: PREINCUBATION
[5] = Test System: AMES SALMONELLA TYPHIMURIUM, Strain/Indicator: TA100, Metabolic Activation: RAT, LIVER, S-9, AROCLOR 1254, Method: PREINCUBATION

Measured: mutagenic call

CC(C)OS(C)(=O)=O
active: End Point: IN VITRO MICRONUCLEUS, Test System: MOUSE LYMPHOMA L5178Y CELLS, Metabolic Activation: NONE active; positive | End Point: IN VITRO MICRONUCLEUS, Test System: MOUSE LYMPHOMA L5178Y CELLS, Metabolic Activation: RAT, LIVER, S-9 active; positive | Test System: AMES SALMONELLA TYPHIMURIUM, Strain/Indicator: TA98, Metabolic Activation: NONE, Method: STANDARD PLATE active; positive | [1] active; positive | [2] active; positive | Test System: AMES SALMONELLA TYPHIMURIUM, Strain/Indicator: TA100, Metabolic Activation: RAT, LIVER, S-9, Method: STANDARD PLATE active; positive | [3] active; positive | Test System: CHINESE HAMSTER V-79, Strain/Indicator: V-79/6-THIOGUANINE, Metabolic Activation: NONE, Method: FLASK ASSAY active; positive | Test System: CHO/HGPRT, Strain/Indicator: CHO-K1-BH4, Metabolic Activation: NONE, Method: STANDARD PLATE active; positive
inactive: Test System: AMES SALMONELLA TYPHIMURIUM, Strain/Indicator: TA98, Metabolic Activation: RAT, LIVER, S-9, Method: STANDARD PLATE inactive; negative

CCN(CC)S(=O)(=O)c1ccc(N)cc1
inactive: [4] inactive; negative | Test System: AMES SALMONELLA TYPHIMURIUM, Strain/Indicator: TA98, Metabolic Activation: RAT, LIVER, S-9, AROCLOR 1254, Method: PREINCUBATION inactive; negative | [1] inactive; negative | [5] inactive; negative

O/C=C/Cc1ccc2c(c1)OCO2
active: Test System: UDS HUMAN FIBROBLASTS, Strain/Indicator: THY INCORP (NON-S-PHASE), Metabolic Activation: NONE, Method: AUTORADIOGRAPHY active; positive

c1ccc(CN2C3c4ccccc4-c4ccccc4C32)cc1 (centres undefined)
active: [2] active; positive

FC(F)(F)CC(F)(F)F
inactive: Test System: AMES SALMONELLA TYPHIMURIUM, Strain/Indicator: TA97, Metabolic Activation: NONE, Method: CLOSED GLASS VESSEL inactive; negative | Test System: AMES SALMONELLA TYPHIMURIUM, Strain/Indicator: TA97, Metabolic Activation: RAT LIVER S-9, AROCLOR 1254, Method: CLOSED GLASS VESSEL inactive; negative | Test System: AMES SALMONELLA TYPHIMURIUM, Strain/Indicator: TA98, Metabolic Activation: NONE, Method: CLOSED GLASS VESSEL inactive; negative | Test System: AMES SALMONELLA TYPHIMURIUM, Strain/Indicator: TA98, Metabolic Activation: RAT LIVER S-9, AROCLOR 1254, Method: CLOSED GLASS VESSEL inactive; negative | Test System: AMES SALMONELLA TYPHIMURIUM, Strain/Indicator: TA100, Metabolic Activation: NONE, Method: CLOSED GLASS VESSEL inactive; negative | Test System: AMES SALMONELLA TYPHIMURIUM, Strain/Indicator: TA100, Metabolic Activation: RAT LIVER S-9, AROCLOR 1254, Method: CLOSED GLASS VESSEL inactive; negative | Test System: AMES SALMONELLA TYPHIMURIUM, Strain/Indicator: TA1535, Metabolic Activation: NONE, Method: CLOSED GLASS VESSEL inactive; negative | Test System: AMES SALMONELLA TYPHIMURIUM, Strain/Indicator: TA1535, Metabolic Activation: RAT LIVER S-9, AROCLOR 1254, Method: CLOSED GLASS VESSEL inactive; negative | Test System: ESCHERICHIA COLI, Strain/Indicator: WP2 UVR A, Metabolic Activation: NONE, Method: CLOSED GLASS VESSEL inactive; negative | Test System: ESCHERICHIA COLI, Strain/Indicator: WP2 UVR A, Metabolic Activation: RAT LIVER S-9, AROCLOR 1254, Method: CLOSED GLASS VESSEL inactive; negative

COc1cccc(C(=O)CBr)c1
inactive: [4] inactive; negative | Test System: AMES SALMONELLA TYPHIMURIUM, Strain/Indicator: TA98, Metabolic Activation: RAT, LIVER, S-9, PCB, Method: PREINCUBATION inactive; negative | [1] inactive; negative | Test System: AMES SALMONELLA TYPHIMURIUM, Strain/Indicator: TA100, Metabolic Activation: RAT, LIVER, S-9, PCB, Method: PREINCUBATION inactive; negative | Test System: E. COLI, Strain/Indicator: WP2 UVRA, Metabolic Activation: NONE, Method: PREINCUBATION inactive; negative

CC(=O)Nc1ccc(N/N=C2/C(=O)c3ccc(NC(=O)Nc4ccc5c(c4)C=C(S(=O)(=O)O)/C(=N/Nc4ccccc4)C5=O)cc3C=C2S(=O)(=O)O)cc1
active: Test System: Ames Salmonella typhimurium, Strain/Indicator: TA98, Metabolic Activation: None, Method: Preincubation active; positive

COc1cc(NS(C)(=O)=O)ccc1Nc1c2ccccc2nc2cc(N=[N+]=[N-])ccc12
active: Test System: AMES SALMONELLA TYPHIMURIUM, Strain/Indicator: TA1537, Metabolic Activation: NONE, Method: STANDARD PLATE active; positive

CCCCN(CCCC)N=O
active: Test System: AMES SALMONELLA TYPHIMURIUM, Strain/Indicator: TA100, Metabolic Activation: MOUSE, INTACT UROTHELIAL CELLS, Method: FLUCTUATION TEST active; positive | Test System: AMES SALMONELLA TYPHIMURIUM, Strain/Indicator: TA100, Metabolic Activation: RAT, INTACT UROTHELIAL CELLS, Method: FLUCTUATION TEST active; positive | [5] active; positive | Test System: AMES SALMONELLA TYPHIMURIUM, Strain/Indicator: TA100, Metabolic Activation: RAT, LIVER, S-9, KC500 OR PHENOBARBITAL, Method: LIQUID SUSPENSION active; positive | Test System: AMES SALMONELLA TYPHIMURIUM, Strain/Indicator: TA104, Metabolic Activation: RAT, LIVER, S-9, AROCLOR 1254, Method: PREINCUBATION active; positive | Test System: AMES SALMONELLA TYPHIMURIUM, Strain/Indicator: TA1530, Metabolic Activation: RAT, LIVER, S-9, Method: STANDARD PLATE active; positive | Test System: AMES SALMONELLA TYPHIMURIUM, Strain/Indicator: TA1535, Metabolic Activation: RAT, LIVER, MICROSOMES, KANECHLOR 500, Method: PREINCUBATION active; positive | Test System: AMES SALMONELLA TYPHIMURIUM, Strain/Indicator: TA1535, Metabolic Activation: RAT, LIVER, S-9, AROCLOR 1254, Method: PREINCUBATION active; positive | Test System: AMES SALMONELLA TYPHIMURIUM, Strain/Indicator: TA1535, Metabolic Activation: RAT, LIVER, S-9, AROCLOR, Method: PREINCUBATION active; positive | Test System: AMES SALMONELLA TYPHIMURIUM, Strain/Indicator: TA1535, Metabolic Activation: RAT, LIVER, S-9, SODIUM PHENOBARBITONE, Method: PREINCUBATION active; positive | Test System: AMES SALMONELLA TYPHIMURIUM, Strain/Indicator: TA1975, Metabolic Activation: RAT, LIVER, S-9, AROCLOR 1254, Method: PREINCUBATION active; positive | Test System: AMES SALMONELLA TYPHIMURIUM, Strain/Indicator: YG7104ER, Metabolic Activation: NONE, Method: STANDARD PLATE active; positive | Test System: AMES SALMONELLA TYPHIMURIUM, Strain/Indicator: YG7108ER, Metabolic Activation: NONE, Method: STANDARD PLATE active; positive | Test System: CHINESE HAMSTER V-79, Strain/Indicator: V-79/8-AZAGUANINE, Metabolic Activation: RAT, LIVER, S-15, PHENOBARBITAL, Method: STANDARD PLATE active; positive | Test System: CHINESE HAMSTER V-79, Strain/Indicator: V-79/OUABAIN, Metabolic Activation: HAMSTER, HEPATOCYTES, Method: CELL-MEDIATED active; positive | Test System: E. COLI, Strain/Indicator: WP2 (HCR), Metabolic Activation: RAT, LIVER, MICROSOMES, KANECHLOR 500, Method: PREINCUBATION active; positive | Test System: E. COLI, Strain/Indicator: WP2 (HCR-), Metabolic Activation: RAT, LIVER, MICROSOMES, PHENOBARBITAL active; positive
inactive: [3] inactive; negative | Test System: AMES SALMONELLA TYPHIMURIUM, Strain/Indicator: TA1535, Metabolic Activation: RAT, LIVER, HEPATOCYTES, Method: PREINCUBATION inactive; negative | Test System: AMES SALMONELLA TYPHIMURIUM, Strain/Indicator: TA1535, Metabolic Activation: RAT, LIVER, S-9, Method: PREINCUBATION inactive; negative | Test System: AMES SALMONELLA TYPHIMURIUM, Strain/Indicator: TA1535ER, Metabolic Activation: NONE, Method: STANDARD PLATE inactive; negative

Source: PubChem BioAssay AID1259407 (Chemical Carcinogenesis Research Information System (CCRIS), 2018)
